Experimental data: PMC11364775, “Ion occupancy of the selectivity filter controls opening of a cytoplasmic gate in the K2P channel TALK-2” (Nature Communications, 2024)
Like-named read-outs stand apart in the source and are kept apart here.

Experiments:
WT TALK-2 channels [1] = target: T1, WT TALK-2 channels (Homo sapiens, UniProt Q96T54); assay: Conductance-voltage (G-V) curves from tail currents, V1/2 (intracellular Rb+); format: cell-based; design: expressed in transfected cells; host or cells: Xenopus laevis oocytes (cRNA injection), excised inside-out patches; conditions: for Normalized current: TALK-2 WT + 1 mM 2-APB
T1 sequence (Q96T54 1-332): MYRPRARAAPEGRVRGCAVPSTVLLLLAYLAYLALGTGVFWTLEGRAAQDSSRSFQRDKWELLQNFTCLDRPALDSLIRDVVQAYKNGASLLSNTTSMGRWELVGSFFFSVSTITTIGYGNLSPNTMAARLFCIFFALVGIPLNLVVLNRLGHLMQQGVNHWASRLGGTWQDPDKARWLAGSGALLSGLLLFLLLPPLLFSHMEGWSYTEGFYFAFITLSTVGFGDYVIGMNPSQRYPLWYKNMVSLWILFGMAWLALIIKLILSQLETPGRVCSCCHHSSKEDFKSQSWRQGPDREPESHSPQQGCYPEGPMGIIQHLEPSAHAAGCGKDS
Source text: The voltage-dependent activation mechanism of the SF gate in K2P channels allows to estimate the electrical work (ΔG = zFΔV1/2) required for pore opening by fitting the G–V curve to a Boltzmann equation. […] The open state represents the situation of both gates being simultaneously open but voltage can only exert force on the SF gate that functions as voltage sensor. […] We further tested whether mutations that open the lower gate (L262A and L264A) would affect the extracellular pH sensitivity. […] We further explored this concept of allosteric coupling using the mutations identified in the functional alanine screen of TM2 and TM4. […]
Conductance-voltage (G–V) relationships were determined from tail currents recorded at a holding potential (VH) of −80 mV after 300 ms depolarizing steps as indicated in the respective figure legend. Data were analyzed with a single Boltzmann fit following Eq. 6:6 GV=Imax/1+e^V−V1/2/slope+Ibase where V1/2 represents the voltage of half-maximal activation, s is the slope factor and Imax and Ibase represent the upper and lower asymptotes. Under appropriate experimental conditions, you can use slope to calculate the valence (charge) of the ion moving across the channel. Slope equals R * T/ z * F where R is the universal gas constant, T is temperature in K, F is the Faraday constant, and z is the valence.

WT TALK-2 channels [2] = target: T1, WT TALK-2 channels; conditions: TALK-2 WT
Procedure: Data shown are the mean ± s.e.m and the number (n) of repeats of the representative measurements with similar results is indicated in the figure.
Oocytes were surgically removed from anesthetized adult females, treated with type II collagenase (Sigma-Aldrich/Merck, Germany) and manually defolliculated. 50 nl of a solution containing the K^+ channel specific cRNA was injected into Dumont stage V - VI oocytes and subsequently incubated at 17 °C in a solution containing (mM): 54 NaCl, 30 KCl, 2.4 NaHCO3, 0.82 MgSO4 x 7 H2O, 0.41 CaCl2, 0.33 Ca(NO3)2 x 4 H2O and 7.5 TRIS (pH 7.4 adjusted with NaOH/HCl) for 1–7 days before use. Electrophysiological recordings: Excised patch measurements in inside-out configuration under voltage-clamp conditions were performed at room temperature (22 – 24 °C). Patch pipettes were made from thick-walled borosilicate glass GB 200TF-8P (Science Products, Germany), had resistances of 0.2–0.5 MΩ (tip diameter of 10 - 25 µm) and filled with a pipette solution (in mM): 120 KCl, 10 HEPES and 3.6 CaCl2 (pH 7.0 - 8.5 adjusted with KOH/HCl) or 120 KCl, 10 AMPSO and 3.6 CaCl2 (pH 9.0 - 10.5 adjusted with KOH/HCl). Intracellular bath solutions and compounds were applied to the cytoplasmic side of excised patches for the various K^+ channels via a gravity flow multi-barrel pipette system. Intracellular solution had the following composition (in mM): 120 KCl, 10 HEPES, 2 EGTA and 1 Pyrophosphate (pH adjusted with KOH/HCl). In other intracellular bath solutions, K^+ was replaced by Rb^+ (pH 7.4 adjusted with RbOH/HCl). Currents were recorded with an EPC10 amplifier (HEKA electronics, Germany) and sampled at 10 kHz or higher and filtered with 3 kHz (-3 dB) or higher as appropriate for sampling rate.

[3] = target: T2, WT TALK-2 channels (human K2P17.1) (Homo sapiens, UniProt Q96T54); assay: Inside-out patch-clamp, ligand activation of channel currents at +40 mV (oocytes)
T2 sequence (Q96T54 1-332): T1 sequence (Q96T54 1-332)
Procedure: Oocytes were surgically removed from anesthetized adult females, treated with type II collagenase (Sigma-Aldrich/Merck, Germany) and manually defolliculated. 50 nl of a solution containing the K^+ channel specific cRNA was injected into Dumont stage V - VI oocytes and subsequently incubated at 17 °C in a solution containing (mM): 54 NaCl, 30 KCl, 2.4 NaHCO3, 0.82 MgSO4 x 7 H2O, 0.41 CaCl2, 0.33 Ca(NO3)2 x 4 H2O and 7.5 TRIS (pH 7.4 adjusted with NaOH/HCl) for 1–7 days before use. Electrophysiological recordings: Excised patch measurements in inside-out configuration under voltage-clamp conditions were performed at room temperature (22 – 24 °C). […] Intracellular bath solutions and compounds were applied to the cytoplasmic side of excised patches for the various K^+ channels via a gravity flow multi-barrel pipette system. Intracellular solution had the following composition (in mM): 120 KCl, 10 HEPES, 2 EGTA and 1 Pyrophosphate (pH adjusted with KOH/HCl). In other intracellular bath solutions, K^+ was replaced by Rb^+ (pH 7.4 adjusted with RbOH/HCl). Currents were recorded with an EPC10 amplifier (HEKA electronics, Germany) and sampled at 10 kHz or higher and filtered with 3 kHz (-3 dB) or higher as appropriate for sampling rate.
Recorded currents were analyzed from stable membrane patches at a voltage defined in the respective figure legend or with a voltage protocol as indicated in the respective figure. The fold activation (fold change in (tail) current amplitude) of a ligand (drug or bioactive lipid) was calculated from Eq. 1:1 Fold activationFA=Iactivated/Ibasal where Iactivated represents the stable current level in the presence of a given concentration of a respective ligand and Ibasal the measured current before ligand application. Percentage inhibition or residual currents upon blocker application for a ligand (drug or bioactive lipid) was calculated from stable currents of excised membrane patches using the following Eqs. 2 and 3:2 %inhibition=1−Iinhibited/Ibasal*100 3 Residual current=100−%inhibition where Iinhibited refers to the stable current level recorded in the presence of a given concentration of a drug or bioactive lipid and Ibasal to the measured current before ligand application. The macroscopic half-maximal concentration-inhibition relationship of a ligand was obtained using a Hill-fit for dose-response curves as depicted in Eq. 4:4 %inhibition/activation=Ibase+Imax−Ibase/1+x1/2/x^rate where base and max are the currents in the absence and presence of a respective ligand, x is the concentration of the ligand, x1/2 is the ligand concentration at which the activatory or inhibitory effect is half-maximal, rate is the Hill coefficient.

- V1/2 shift (mV) (WT TALK-2 channels [1]; 1 mM 2-APB, shift of G-V curve): 26.9 mV
- Normalized current (WT TALK-2 channels [1]; Voltage 0.000): 0.204
- Normalized current (WT TALK-2 channels [1]; Voltage 0.005): 0.227
- Normalized current (WT TALK-2 channels [1]; Voltage 0.010): 0.255
- Normalized current (WT TALK-2 channels [1]; Voltage 0.015): 0.290
- Normalized current (WT TALK-2 channels [1]; Voltage 0.020): 0.331
- Normalized current (WT TALK-2 channels [1]; Voltage 0.025): 0.376
- Normalized current (WT TALK-2 channels [1]; Voltage 0.030): 0.427
- Normalized current (WT TALK-2 channels [1]; Voltage 0.035): 0.474
- Normalized current (WT TALK-2 channels [1]; Voltage 0.040): 0.520
- Normalized current (WT TALK-2 channels [1]; Voltage 0.045): 0.565
- Normalized current (WT TALK-2 channels [1]; Voltage 0.050): 0.611
- Normalized current (WT TALK-2 channels [1]; Voltage 0.055): 0.652
- Normalized current (WT TALK-2 channels [1]; Voltage 0.060): 0.689
- Normalized current (WT TALK-2 channels [1]; Voltage 0.065): 0.723
- Normalized current (WT TALK-2 channels [1]; Voltage 0.070): 0.754
- Normalized current (WT TALK-2 channels [1]; Voltage 0.075): 0.784
- Normalized current (WT TALK-2 channels [1]; Voltage 0.080): 0.809
- Normalized current (WT TALK-2 channels [1]; Voltage 0.085): 0.834
- Normalized current (WT TALK-2 channels [1]; Voltage 0.090): 0.854
- Normalized current (WT TALK-2 channels [1]; Voltage 0.095): 0.872
- Normalized current (WT TALK-2 channels [1]; Voltage 0.100): 0.891
- Normalized current (WT TALK-2 channels [1]; Voltage 0.105): 0.905
- Normalized current (WT TALK-2 channels [1]; Voltage 0.110): 0.919
- Normalized current (WT TALK-2 channels [1]; Voltage 0.115): 0.931
- Normalized current (WT TALK-2 channels [1]; Voltage 0.120): 0.943
- Normalized current (WT TALK-2 channels [1]; Voltage 0.125): 0.952
- Normalized current (WT TALK-2 channels [1]; Voltage 0.130): 0.961
- Normalized current (WT TALK-2 channels [1]; Voltage 0.135): 0.972
- Normalized current (WT TALK-2 channels [1]; Voltage 0.140): 0.971
- Normalized current (WT TALK-2 channels [1]; Voltage 0.145): 0.979
- Normalized current (WT TALK-2 channels [1]; Voltage 0.150): 0.985
- Normalized current (WT TALK-2 channels [1]; Voltage 0.155): 0.989
- Normalized current (WT TALK-2 channels [1]; Voltage 0.160): 0.992
- Normalized current (WT TALK-2 channels [1]; Voltage -0.005): 0.187
- Normalized current (WT TALK-2 channels [1]; Voltage -0.010): 0.175
- Normalized current (WT TALK-2 channels [1]; Voltage -0.015): 0.167
- Normalized current (WT TALK-2 channels [1]; Voltage -0.020): 0.158
- Normalized current (WT TALK-2 channels [1]; Voltage -0.025): 0.153
- Normalized current (WT TALK-2 channels [1]; Voltage -0.030): 0.148
- Normalized current (WT TALK-2 channels [1]; Voltage -0.035): 0.143
- Normalized current (WT TALK-2 channels [1]; Voltage -0.040): 0.140
- Normalized current (WT TALK-2 channels [1]; Voltage -0.045): 0.136
- Normalized current (WT TALK-2 channels [1]; Voltage -0.050): 0.131
- Normalized current (WT TALK-2 channels [1]; Voltage -0.055): 0.128
- Normalized current (WT TALK-2 channels [1]; Voltage -0.060): 0.125
- Normalized current (WT TALK-2 channels [1]; Voltage -0.065): 0.121
- Normalized current (WT TALK-2 channels [1]; Voltage -0.070): 0.118
- Normalized current (WT TALK-2 channels [1]; Voltage -0.075): 0.115
- Normalized current (WT TALK-2 channels [1]; Voltage -0.080): 0.114
- Normalized current (WT TALK-2 channels [1]; Voltage -0.085): 0.112
- Normalized current (WT TALK-2 channels [1]; Voltage -0.090): 0.113
- Normalized current (WT TALK-2 channels [1]; Voltage -0.095): 0.112
- Normalized current (WT TALK-2 channels [1]; Voltage -0.100): 0.112
- Normalized current (WT TALK-2 channels [1]; Voltage -0.105): 0.111
- Normalized current (WT TALK-2 channels [1]; Voltage -0.110): 0.110
- Normalized current (WT TALK-2 channels [1]; Voltage -0.115): 0.110
- Normalized current (WT TALK-2 channels [1]; Voltage -0.120): 0.111
- V1/2 (WT TALK-2 channels [1]; TALK-2 WT, 1 mM ligand): 44.7 mV
- Rb+-induced current (WT TALK-2 channels [2]; 0.001 mM 2-APB): 0.79 nA
- Rb+-induced current (WT TALK-2 channels [2]; 0.01 mM 2-APB): 0.98 nA
- Rb+-induced current (WT TALK-2 channels [2]; 0.1 mM 2-APB): 2.85 nA
- Rb+-induced current (WT TALK-2 channels [2]; 0.5 mM 2-APB): 8.79 nA
- Rb+-induced current (WT TALK-2 channels [2]; 1.0 mM 2-APB): 11.82 nA
- Rb+-induced current (WT TALK-2 channels [2]; 2.0 mM 2-APB): 15.32 nA
- EC50 [3]: 421 ± 34 µM
- Fold activation 1 mM 2-APB ([3]; 1 mM, TALK-2 WT): 26.51 fold
- Normalized currents ([3]; TALK-2 WT, 0.1 µM 2-APB): 0.04
- Normalized currents ([3]; TALK-2 WT, 1 µM 2-APB): 0.04
- Normalized currents ([3]; TALK-2 WT, 10 µM 2-APB): 0.05
- Normalized currents ([3]; TALK-2 WT, 100 µM 2-APB): 0.19
- Normalized currents ([3]; TALK-2 WT, 500 µM 2-APB): 0.58
- Normalized currents ([3]; TALK-2 WT, 1000 µM 2-APB): 0.87
- Normalized currents ([3]; TALK-2 WT, 2000 µM 2-APB): 1.00
SMILES: NCCOB(c1ccccc1)c1ccccc1 [2-APB, 2-aminoethoxydiphenyl borate]
